Experimental data reported in patent publication EP0752872B1, “NADH OXIDASE AS A TARGET IN DIAGNOSIS AND THERAPY” (Morré, D. James, priority 1994, dated 1995).
Where two headings read alike, the source gives them in different places.

Key:
[1] = tested on: plasma membrane NADH oxidase; assay: Spectrophotometric NADH oxidase assay, rat liver plasma membranes (normal cells); format: biochemical
Experimental: Purification of plasma membranes from rat liver. A 5000 x g pellet from the preparation of Golgi apparatus (Morré (1971) Meth. Enzymol. 22, 130-148) was the starting material. The fluffy layer which contains the Golgi apparatus fraction was mixed, withdrawn and excluded from the plasma membrane preparations. Cold 1 mM NaHCO3 (5 ml) was added to each tube and the friable yellow-brown upper part of the pellet was resuspended with a pen-brush, leaving the reddish tightly packed bottom part of the pellet undisturbed. The resuspended material was homogenized in aliquots of 5 ml each in a 30 ml stainless steel homogenizer (Duragrind) 20 times by hand. The homogenates were combined, diluted with cold 1 mM NaHCO3 (1:1 dilution), and centrifuged at 6000 x g in a HB rotor for 15 min. The supernatant was discarded and the pellet was used for the two-phase separation (Morré & Morré (1989) BioTechniques 7:946-958).
The two-phase system contained 6.4% (w/w) Dextran T-500 (Pharmacia), 6.4% (w/w) polyethylene glycol) 3350 (Fisher), and 5 mM potassium phosphate buffer (pH 7.2) (Morré & Morré, 1989, supra). The homogenate (1 g) was added to the two-phase system and the weight of the system was brought to 8 g with distilled water. The tubes were inverted vigorously for 40 times in the cold (4°C). The phases were separated by centrifugation at 750 rpm (150 x g) in a Sorvall HB 4 rotor for 5 min. The upper phases were carefully withdrawn with a pasteur pipette, divided in half and transferred into 40 ml plastic centrifuge tubes and diluted with cold 1 mM NaHCO3. The purified plasma membranes were collected by centrifugation at 10,000 x g in a HB rotor for 30 min. Plasma membrane pellets were resuspended in 50 mM Tris-Mes buffer (pH 7.2) and stored at -70°C. Proteins were determined using the bicinchoninic acid (BCA) assay (Smith et al. (1985) Anal. Biochem. […]: 76-85) with bovine serum albumin as standard.
(§1) Spectrophometric assay of NADH oxidase. NADH oxidase activity was determined as the disappearance of NADH measured at 340 nm in a reaction mixture containing 25 mM Tris-MES buffer (pH 7.2), 1 mM KCN to inhibit the low levels of contaminating mitochondrial oxidase activity, and 150 µM NADH at 37°C with constant stirring. Activity was measured using a Hitachi U3210 spectrophotometer with continuous recording over two intervals of 5 min each. A millimolar extinction coefficient of 6.22 was used to determine specific activity.

[2] = tested on: circulating NADH oxidase in the serum; assay: NADH oxidase activity of human serum; format: biochemical
Experimental: as §1

normal rat kidney cells = assay: Growth of normal rat kidney cells; format: cell-based
[3] = molecular target: T1, NADH oxidase from HeLa cell plasma membranes (Homo sapiens, UniProt Q16206); assay: Spectrophotometric NADH oxidase assay, HeLa plasma membranes; format: biochemical
T1 sequence (Q16206 1-610): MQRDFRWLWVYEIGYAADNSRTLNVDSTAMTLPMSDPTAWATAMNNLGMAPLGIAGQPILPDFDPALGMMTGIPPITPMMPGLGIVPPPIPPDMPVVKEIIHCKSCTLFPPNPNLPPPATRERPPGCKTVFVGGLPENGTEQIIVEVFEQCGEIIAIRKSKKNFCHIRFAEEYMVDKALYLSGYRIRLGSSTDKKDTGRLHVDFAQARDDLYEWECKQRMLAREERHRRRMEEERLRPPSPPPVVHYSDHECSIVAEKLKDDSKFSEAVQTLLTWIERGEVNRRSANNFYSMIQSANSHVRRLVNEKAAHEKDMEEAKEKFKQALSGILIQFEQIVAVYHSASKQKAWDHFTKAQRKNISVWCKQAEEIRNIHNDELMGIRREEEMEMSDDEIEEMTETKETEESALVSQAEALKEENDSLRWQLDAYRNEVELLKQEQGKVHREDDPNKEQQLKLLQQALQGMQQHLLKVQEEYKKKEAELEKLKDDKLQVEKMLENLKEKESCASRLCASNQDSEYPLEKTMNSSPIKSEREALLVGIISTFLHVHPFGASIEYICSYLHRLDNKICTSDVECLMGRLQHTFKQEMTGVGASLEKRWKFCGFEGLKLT
Experimental: Purification of plasma membranes from HeLa cells. HeLa cells were grown as suspension cultures in minimum essential medium (MEM) supplemented with horse serum, diferric transferrin and heparin. Cells were collected by centrifugation for 6 to 15 min at 1,000 to 3,000 rpm. The cell pellets were resuspended in 0.2 mM EDTA in 1 mM NaHCO3 in an approximate ratio of 1 ml per 10^8 cells and incubated on ice for 10 to 30 min to swell the cells. Homogenization was with a Polytron Homogenizer for 30 to 40 sec at 10,500 rpm using a PT-PA 3012/23 or ST-probe in 7 to 8 ml aliquots. To estimate breakage, the cells are monitored by light microscopy before and after homogenization. […]
The homogenates were centrifuged for 10 min at 1,000 rpm (175 g) to remove unbroken cells and nuclei and the supernatant was centrifuged a second time at 1.4 x 10^6 g min (e.g. 1 h at 23,500 g) to prepare a plasma membrane enriched microsome fraction. […] The purity of the plasma membrane was determined to be > 90% by electron microscope morphometry. […]
Spectrophometric assay of NADH oxidase. NADH oxidase activity was determined as the disappearance of NADH measured at 340 nm in a reaction mixture containing 25 mM Tris-MES buffer (pH 7.2), 1 mM KCN to inhibit the low levels of contaminating mitochondrial oxidase activity, and 150 µM NADH at 37°C with constant stirring. […]

HeLa cells = assay: Growth of HeLa cells in culture; format: cell-based, human; settings: Homo sapiens, HeLa, 72 h
Experimental: Growth of cells. HeLa cells (ATCC CCL2), were grown in 150 cm^2 flasks in Minimal Essential Medium (Gibco), pH 7.4. at 37°C with 10% bovine calf serum (heat-inactivated), plus 50 mg/l gentamycin sulfate (Sigma). Cells were trypsinized with Sigma IX trypsin for 1 to 2 min, harvested by scraping and taken up in TD-tris buffer (140 mM NaCl, 5 mM KCl, 0.7 mM Na2HPO4 and 25 mM Tris, pH 7.4) to a final cell concentration of 0.1 g wet weight (gww) per ml.
The number of cells initially plated was subtracted. The results were averages from duplicate experiments.

[4] = tested on: NADH oxidase activity of isolated plasma membranes of normal rat kidney cells; assay: NADH oxidase assay, plasma membranes of normal rat kidney cells

COc1cc(CNC(=O)CCCC/C=C/C(C)C)ccc1O [capsaicin]
effect on NADH oxidase activity (in words) [1]: no effect
NADH oxidase activities of human serum, Mean [2]: 0.56
Ratio, Mean [2]: 0.97
concentration at which growth is inhibited (normal rat kidney cells): > 10^-5 M
inhibition of NADH oxidase activity (in words) [3]: nearly completely inhibited
IC50 (HeLa cells; read-out: concentration at which growth was 50% inhibited): ~1000 nM
IC50 (HeLa cells; read-out: concentration of drug able to inhibit growth by 50%): > 10000 nM
concentration at which NADH oxidase activity is inhibited [4]: > 10^-5 M
